Measurements taken from patent publication US20050065062A1, “Method of formulating a pharmaceutical composition” (3M Innovative Properties Company, priority 2003, published 2005).
Read-outs that look alike come from different tables or passages of the source.

Experiments:
[1] = Franz diffusion cell, membrane diffusion across hairless mouse skin; type: in vitro ADME; settings: for relative order for membrane diffusion rate: ranking of excipients
Method: Diffusion of the compounds through hairless mouse skin into phosphate buffer in a Franz cell was carried out and measured as described in Example 1, with Sudan I being used in place of Fat Brown RR.

[2] = 0 h
[3] = Franz diffusion cell, membrane diffusion across poly(dimethylsiloxane) membrane; settings: ranking of excipients
[4] = Table 3, saturated solution in alpha-terpineol, 0 hours
[5] = Table 3, saturated solution in alpha-terpineol, 24 hours
[6] = Table 3, saturated solution in isostearic acid, 0 hours
[7] = Table 3, saturated solution in isostearic acid, 24 hours
[8] = Table 3, saturated solution in propylene glycol, 0 hours
[9] = Table 3, saturated solution in propylene glycol, 24 hours
[10] = Table 3, saturated solution in tetraglycol, 0 hours
[11] = Table 3, saturated solution in tetraglycol, 24 hours

Oc1ccc2ccccc2c1N=Nc1ccccc1 [Sudan I]
CUMULATIVE AMOUNT OF COMPOUND DIFFUSED ACROSS SKIN [1, 4]: 0 μg/10 mL | CUMULATIVE AMOUNT OF COMPOUND DIFFUSED ACROSS SKIN [1, 5]: 72 μg/10 mL | CUMULATIVE AMOUNT OF COMPOUND DIFFUSED ACROSS SKIN ([1]; Table 3, saturated solution in alpha-terpineol, 50 hours): 201 μg/10 mL | CUMULATIVE AMOUNT OF COMPOUND DIFFUSED ACROSS SKIN ([1]; Table 3, saturated solution in alpha-terpineol, 59 hours): 259 μg/10 mL | CUMULATIVE AMOUNT OF COMPOUND DIFFUSED ACROSS SKIN [1, 6]: 0 μg/10 mL | CUMULATIVE AMOUNT OF COMPOUND DIFFUSED ACROSS SKIN [1, 7]: 38 μg/10 mL | CUMULATIVE AMOUNT OF COMPOUND DIFFUSED ACROSS SKIN ([1]; Table 3, saturated solution in isostearic acid, 50 hours): 118 μg/10 mL | CUMULATIVE AMOUNT OF COMPOUND DIFFUSED ACROSS SKIN ([1]; Table 3, saturated solution in isostearic acid, 59 hours): 149 μg/10 mL | CUMULATIVE AMOUNT OF COMPOUND DIFFUSED ACROSS SKIN [1, 8]: 0 μg/10 mL | CUMULATIVE AMOUNT OF COMPOUND DIFFUSED ACROSS SKIN [1, 9]: 31 μg/10 mL | CUMULATIVE AMOUNT OF COMPOUND DIFFUSED ACROSS SKIN ([1]; Table 3, saturated solution in propylene glycol, 50 hours): 108 μg/10 mL | CUMULATIVE AMOUNT OF COMPOUND DIFFUSED ACROSS SKIN ([1]; Table 3, saturated solution in propylene glycol, 59 hours): 142 μg/10 mL | CUMULATIVE AMOUNT OF COMPOUND DIFFUSED ACROSS SKIN [1, 10]: 0 μg/10 mL | CUMULATIVE AMOUNT OF COMPOUND DIFFUSED ACROSS SKIN [1, 11]: 11 μg/10 mL | CUMULATIVE AMOUNT OF COMPOUND DIFFUSED ACROSS SKIN ([1]; Table 3, saturated solution in tetraglycol, 50 hours): 61 μg/10 mL | CUMULATIVE AMOUNT OF COMPOUND DIFFUSED ACROSS SKIN ([1]; Table 3, saturated solution in tetraglycol, 59 hours): 81 μg/10 mL | relative order for membrane diffusion rate [1]: alpha-terpineol>tetraglycol

C[C@]12CC[C@H]3[C@@H](CCC4=CC(=O)CC[C@@]43C)[C@@H]1CC[C@@H]2O [Testosterone, testosterone]
CUMULATIVE AMOUNT OF COMPOUND DIFFUSED ACROSS SKIN [1, 4]: 0 μg/10 mL | CUMULATIVE AMOUNT OF COMPOUND DIFFUSED ACROSS SKIN ([1]; Table 3, saturated solution in alpha-terpineol, 6 hours): 605 μg/10 mL | CUMULATIVE AMOUNT OF COMPOUND DIFFUSED ACROSS SKIN ([1]; Table 3, saturated solution in alpha-terpineol, 12 hours): 1585 μg/10 mL | CUMULATIVE AMOUNT OF COMPOUND DIFFUSED ACROSS SKIN ([1]; Table 3, saturated solution in alpha-terpineol, 18 hours): 3043 μg/10 mL | CUMULATIVE AMOUNT OF COMPOUND DIFFUSED ACROSS SKIN [1, 5]: 4414 μg/10 mL | CUMULATIVE AMOUNT OF COMPOUND DIFFUSED ACROSS SKIN [1, 6]: 0 μg/10 mL | CUMULATIVE AMOUNT OF COMPOUND DIFFUSED ACROSS SKIN ([1]; Table 3, saturated solution in isostearic acid, 6 hours): 74 μg/10 mL | CUMULATIVE AMOUNT OF COMPOUND DIFFUSED ACROSS SKIN ([1]; Table 3, saturated solution in isostearic acid, 12 hours): 192 μg/10 mL | CUMULATIVE AMOUNT OF COMPOUND DIFFUSED ACROSS SKIN ([1]; Table 3, saturated solution in isostearic acid, 18 hours): 418 μg/10 mL | CUMULATIVE AMOUNT OF COMPOUND DIFFUSED ACROSS SKIN [1, 7]: 740 μg/10 mL | CUMULATIVE AMOUNT OF COMPOUND DIFFUSED ACROSS SKIN [1, 8]: 0 μg/10 mL | CUMULATIVE AMOUNT OF COMPOUND DIFFUSED ACROSS SKIN ([1]; Table 3, saturated solution in propylene glycol, 6 hours): 79 μg/10 mL | CUMULATIVE AMOUNT OF COMPOUND DIFFUSED ACROSS SKIN ([1]; Table 3, saturated solution in propylene glycol, 12 hours): 216 μg/10 mL | CUMULATIVE AMOUNT OF COMPOUND DIFFUSED ACROSS SKIN ([1]; Table 3, saturated solution in propylene glycol, 18 hours): 546 μg/10 mL | CUMULATIVE AMOUNT OF COMPOUND DIFFUSED ACROSS SKIN [1, 9]: 956 μg/10 mL | CUMULATIVE AMOUNT OF COMPOUND DIFFUSED ACROSS SKIN [1, 10]: 0 μg/10 mL | CUMULATIVE AMOUNT OF COMPOUND DIFFUSED ACROSS SKIN ([1]; Table 3, saturated solution in tetraglycol, 6 hours): 23 μg/10 mL | CUMULATIVE AMOUNT OF COMPOUND DIFFUSED ACROSS SKIN ([1]; Table 3, saturated solution in tetraglycol, 12 hours): 46 μg/10 mL | CUMULATIVE AMOUNT OF COMPOUND DIFFUSED ACROSS SKIN ([1]; Table 3, saturated solution in tetraglycol, 18 hours): 81 μg/10 mL | CUMULATIVE AMOUNT OF COMPOUND DIFFUSED ACROSS SKIN [1, 11]: 119 μg/10 mL | relative order for membrane diffusion rate [1]: alpha-terpineol>propylene glycol>isostearic acid>tetraglycol | CUMULATIVE AMOUNT OF COMPOUND DIFFUSED ACROSS SKIN ([1]; saturated solution in alpha-terpineol, 0 hours): 0 µg/mL | CUMULATIVE AMOUNT OF COMPOUND DIFFUSED ACROSS SKIN ([1]; saturated solution in alpha-terpineol, 6 hours): 605 µg/mL | CUMULATIVE AMOUNT OF COMPOUND DIFFUSED ACROSS SKIN ([1]; saturated solution in alpha-terpineol, 12 hours): 1585 µg/mL | CUMULATIVE AMOUNT OF COMPOUND DIFFUSED ACROSS SKIN ([1]; saturated solution in alpha-terpineol, 18 hours): 3043 µg/mL | CUMULATIVE AMOUNT OF COMPOUND DIFFUSED ACROSS SKIN ([1]; saturated solution in alpha-terpineol, 24 hours): 4414 µg/mL | CUMULATIVE AMOUNT OF COMPOUND DIFFUSED ACROSS SKIN ([1]; saturated solution in isostearic acid, 0 hours): 0 µg/mL | CUMULATIVE AMOUNT OF COMPOUND DIFFUSED ACROSS SKIN ([1]; saturated solution in isostearic acid, 6 hours): 74 µg/mL | CUMULATIVE AMOUNT OF COMPOUND DIFFUSED ACROSS SKIN ([1]; saturated solution in isostearic acid, 12 hours): 192 µg/mL | CUMULATIVE AMOUNT OF COMPOUND DIFFUSED ACROSS SKIN ([1]; saturated solution in isostearic acid, 18 hours): 418 µg/mL | CUMULATIVE AMOUNT OF COMPOUND DIFFUSED ACROSS SKIN ([1]; saturated solution in isostearic acid, 24 hours): 740 µg/mL | CUMULATIVE AMOUNT OF COMPOUND DIFFUSED ACROSS SKIN ([1]; saturated solution in propylene glycol, 0 hours): 0 µg/mL | CUMULATIVE AMOUNT OF COMPOUND DIFFUSED ACROSS SKIN ([1]; saturated solution in propylene glycol, 6 hours): 79 µg/mL | CUMULATIVE AMOUNT OF COMPOUND DIFFUSED ACROSS SKIN ([1]; saturated solution in propylene glycol, 12 hours): 216 µg/mL | CUMULATIVE AMOUNT OF COMPOUND DIFFUSED ACROSS SKIN ([1]; saturated solution in propylene glycol, 18 hours): 546 µg/mL | CUMULATIVE AMOUNT OF COMPOUND DIFFUSED ACROSS SKIN ([1]; saturated solution in propylene glycol, 24 hours): 956 µg/mL | CUMULATIVE AMOUNT OF COMPOUND DIFFUSED ACROSS SKIN ([1]; saturated solution in tetraglycol, 0 hours): 0 µg/mL | CUMULATIVE AMOUNT OF COMPOUND DIFFUSED ACROSS SKIN ([1]; saturated solution in tetraglycol, 6 hours): 23 µg/mL | CUMULATIVE AMOUNT OF COMPOUND DIFFUSED ACROSS SKIN ([1]; saturated solution in tetraglycol, 12 hours): 46 µg/mL | CUMULATIVE AMOUNT OF COMPOUND DIFFUSED ACROSS SKIN ([1]; saturated solution in tetraglycol, 18 hours): 81 µg/mL | CUMULATIVE AMOUNT OF COMPOUND DIFFUSED ACROSS SKIN ([1]; saturated solution in tetraglycol, 24 hours): 119 µg/mL

C#C[C@]1(O)CC[C@H]2[C@@H]3CCC4=CC(=O)CC[C@@H]4[C@H]3CC[C@@]21CC [levonorgestrel]
CUMULATIVE AMOUNT OF COMPOUND DIFFUSED ACROSS SKIN [2]: 0 μg/10 mL | relative order for membrane diffusion rate [3]: alpha-terpineol>isostearic acid>tetraglycol
